Usually % inhibition stands for the change of the read-out against control, counted positive when it falls. A lower % inhibition goes with a weak effect.

This is an account of results in patent publication US8338380B2, “Use of the peptide RFMWMR as a therapeutic agent” (priority 2007, dated 2012).

This experiment deals with drug-resistant Mycobacterium tuberculosis. Particulars: 5 micrograms per ml.

On to “Ac-RFMWMR-NH2 [Ac-Arg-Phe-Met-Trp-Met-Arg-NH2]”, for which the “% inhibition” value was 100.0%.
